Laboratory results as given in PubChem BioAssay AID2060621 (Molecular Pharmacology Branch, DTP, NCI, 2025).

Test system: 324938-238-R-J1-PDC complex spheroids viability
Test: Anticancer human tumor 324938-238-R-J1-PDC patient-derived bladder carcinoma cell line growth inhibition [CLK]
Conditions: for IC50: curve of first compound; for viability, T/C: stronger effect = lower value; active = viability on the fitted dose curve at most 10% of control; inactive = the rest
Method in brief: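 Multi-cell-type spheroids combined patient-derived tumor cells with HUVEC endothelial cells and human mesenchymal stem cells. Paired agents were dosed in half-log steps down from about clinical Cmax, or from 10 microM where Cmax was unknown.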

[1] = second compound 0.0316 µM, first compound 0.0316 µM
[2] = second compound 0.0316 µM, first compound 0.1 µM
[3] = second compound 0.0316 µM, first compound 0.316 µM
[4] = second compound 0.0316 µM, first compound 1 µM
[5] = second compound 0.1 µM, first compound 0.0316 µM
[6] = second compound 0.1 µM, first compound 0.1 µM
[7] = second compound 0.1 µM, first compound 0.316 µM
[8] = second compound 0.1 µM, first compound 1 µM
[9] = second compound 0.316 µM, first compound 0.0316 µM
[10] = second compound 0.316 µM, first compound 0.1 µM
[11] = second compound 0.316 µM, first compound 0.316 µM
[12] = second compound 0.316 µM, first compound 1 µM
[13] = second compound 1 µM, first compound 0.0316 µM
[14] = second compound 1 µM, first compound 0.1 µM
[15] = second compound 1 µM, first compound 0.316 µM
[16] = second compound 1 µM, first compound 1 µM
[17] = second compound 3.16 µM, first compound 0.0316 µM
[18] = second compound 3.16 µM, first compound 0.1 µM
[19] = second compound 3.16 µM, first compound 0.316 µM
[20] = second compound 3.16 µM, first compound 1 µM
[21] = second compound 10 µM, first compound 0.0316 µM
[22] = second compound 10 µM, first compound 0.1 µM
[23] = second compound 10 µM, first compound 0.316 µM
[24] = second compound 10 µM, first compound 1 µM
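Note: viability read after seven days of drug exposure.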
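Throughout, for viability, T/C: 100% = DMSO vehicle control wells.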

CCN1CCN(Cc2ccc(Nc3ncc(F)c(-c4cc(F)c5nc(C)n(C(C)C)c5c4)n3)nc2)CC1 + CNC(=O)c1ccc(Nc2nc(OC3CCCC3)c3c(-c4ccc5nc(C)oc5c4)c[nH]c3n2)c(OC)c1
inactive: viability, T/C (second compound 0.0316 µM, first compound 0.00316 µM) 75.9% | viability, T/C (second compound 0.0316 µM, first compound 0.01 µM) 77.3% | viability, T/C [1] 57.8% | viability, T/C [2] 49.9% | viability, T/C [3] 42.8% | viability, T/C [4] 36.6% | viability, T/C (second compound 0.1 µM, first compound 0.00316 µM) 32.2% | viability, T/C (second compound 0.1 µM, first compound 0.01 µM) 31.5% | viability, T/C [5] 29.7% | viability, T/C [6] 30.7% | viability, T/C [7] 33.5% | viability, T/C [8] 38.7% | viability, T/C (second compound 0.316 µM, first compound 0.00316 µM) 19.7% | viability, T/C (second compound 0.316 µM, first compound 0.01 µM) 17% | viability, T/C [9] 19% | viability, T/C [10] 22.7% | viability, T/C [11] 30.5% | viability, T/C [12] 33.3% | viability, T/C (second compound 1 µM, first compound 0.00316 µM) 18.5% | viability, T/C (second compound 1 µM, first compound 0.01 µM) 17.9% | viability, T/C [13] 16.8% | viability, T/C [14] 21.5% | viability, T/C [15] 22.6% | viability, T/C [16] 31.9% | viability, T/C (second compound 3.16 µM, first compound 0.00316 µM) 19% | viability, T/C (second compound 3.16 µM, first compound 0.01 µM) 18% | viability, T/C [17] 16.1% | viability, T/C [18] 20.6% | viability, T/C [19] 29.9% | viability, T/C [20] 30.5% | viability, T/C (second compound 10 µM, first compound 0.00316 µM) 16.4% | viability, T/C (second compound 10 µM, first compound 0.01 µM) 15.9% | viability, T/C [21] 21.2% | viability, T/C [22] 18.4% | viability, T/C [23] 23% | viability, T/C [24] 32.5%
0.0876 µM: IC50 (second compound 0.0316 µM)
< 0.00316 µM: IC50 (second compound 0.1 µM) | IC50 (second compound 0.316 µM) | IC50 (second compound 1 µM) | IC50 (second compound 3.16 µM) | IC50 (second compound 10 µM)

Nc1ccccc1NC(=O)c1ccc(CNC(=O)OCc2cccnc2)cc1 + CNC(=O)c1ccc(Nc2nc(OC3CCCC3)c3c(-c4ccc5nc(C)oc5c4)c[nH]c3n2)c(OC)c1
active: viability, T/C (second compound 0.0316 µM, first compound 10 µM) 5.41%
< 0.0316 µM: IC50 (second compound 0.1 µM) | IC50 (second compound 0.316 µM) | IC50 (second compound 1 µM) | IC50 (second compound 3.16 µM) | IC50 (second compound 10 µM)
1.47 µM: IC50 (second compound 0.0316 µM)
inactive: viability, T/C [1] 78.2% | viability, T/C [2] 91.8% | viability, T/C [3] 69% | viability, T/C [4] 57.2% | viability, T/C (second compound 0.0316 µM, first compound 3.16 µM) 35% | viability, T/C [5] 31.1% | viability, T/C [6] 32.7% | viability, T/C [7] 30.4% | viability, T/C [8] 34% | viability, T/C (second compound 0.1 µM, first compound 3.16 µM) 32.6% | viability, T/C (second compound 0.1 µM, first compound 10 µM) 4.92% | viability, T/C [9] 15.1% | viability, T/C [10] 17% | viability, T/C [11] 15.8% | viability, T/C [12] 23.2% | viability, T/C (second compound 0.316 µM, first compound 3.16 µM) 26.1% | viability, T/C (second compound 0.316 µM, first compound 10 µM) 3.89% | viability, T/C [13] 14.2% | viability, T/C [14] 14.6% | viability, T/C [15] 16.7% | viability, T/C [16] 23.7% | viability, T/C (second compound 1 µM, first compound 3.16 µM) 26.2% | viability, T/C (second compound 1 µM, first compound 10 µM) 2.44% | viability, T/C [17] 13% | viability, T/C [18] 15.2% | viability, T/C [19] 18.6% | viability, T/C [20] 18.9% | viability, T/C (second compound 3.16 µM, first compound 3.16 µM) 26.2% | viability, T/C (second compound 3.16 µM, first compound 10 µM) 2.46% | viability, T/C [21] 15.2% | viability, T/C [22] 17.1% | viability, T/C [23] 19% | viability, T/C [24] 20.7% | viability, T/C (second compound 10 µM, first compound 3.16 µM) 25.8% | viability, T/C (second compound 10 µM, first compound 10 µM) 2.14%
